Laboratory results from patent publication US20240067693A1, “POLYPEPTIDES AND USES THEREOF” (MEDIMMUNE LIMITED, priority 2020, published 2024).
Numbered stars: 1 amine (or outer) side, 2 acyl side, 3 side chain; on linkers, the order of the positions; unused ones are H or OH. Bridge positions count the residues as written; N and C are the ends. Square brackets hold non-standard residues; d marks the D form. Side chains are listed from the residue outwards. Peptide text beside a SMILES is read from it. * marks the point of attachment. C18 diacid = O=C(O)CCCCCCCCCCCCCCCCC(=O)*; γGlu = O=C(O)[C@H](CCC(=O)[*:2])N[*:1]; αMeF = C[C@](N)(Cc1ccccc1)C(=O)O; Aib = CC(C)(N)C(=O)O

Tests used:
[1] = Pharmacokinetic determination via IV and SC administration in Sprague Dawley rats; conditions: male, rat, plasma, 20 nmol/kg
Protocol: PK studies were performed to determine the half-life (T1/2) of test peptides. T1/2 describes the time taken for the maximum plasma concentration (Cmax) of a test substance to halve its steady-state concentration when in circulation.
Male SD rats were purchased from Si Bei Fu Laboratory Animal Technology Co. Ltd (China). The animals were 6-8 weeks old with body weights of 200-300 g on the dosing date. The animals were housed in a 12-hour light/12-hour dark cycle environment and were fasted overnight before dosing. The body weight of the animals were recorded before dosing, 24 h and 48 h post dosing . Animals had free access to food and drinks, and the food consumption was quantified every day.
Test articles were administered at 20 nmol/kg. Blood samples were collected from each animal via Jugular vein.
The blood samples were transferred into eppendorf low binding tube containing K2 EDTA. Above 0.150 mL blood were collected at each time point. Blood samples were centrifuged at 4,000 g for 5 minutes at 4° C. to obtain plasma. The plasma samples were stored frozen at −75±15° C. until analysis.
Concentrations of the test articles in the plasma samples were analyzed using a LC-MS/MS method. Data acquisition was performed by LabSolution version 5.89 software (Shimadzu, Kyoto, Japan). Data statistics were performed using Excel 97-2003 software. The pharmacokinetic parameters of test articles were calculated using a non-compartmental approach with Phoenix™ VVinNonlin® 6.1.
The following pharmacokinetic parameters were calculated, whenever possible from the plasma concentration versus time data: • IV administration: T1/2, C0, AUClast, AUCinf, MRTinf, Cl, Vss, Number of Points for Regression. • SC administration: Tmax, Cmax, AUClast, AUCinf, MRTinf, F, Number of Points for Regression.

[2] = molecular target: T1, rat amylin receptor (calcitonin receptor co-expressed with receptor activity modifying protein, RAMP3) (Rat AMYR3) (Rattus norvegicus, UniProt P32214+Q9JJ73); test: cAMP production in HEK cells with stable recombinant expression of rat amylin receptor (Rat AMYR3); type: cell-based; conditions: assay buffer with 0.1% BSA
T1 construct: expressed in transfected cells
T1 sequence (P32214 25-516): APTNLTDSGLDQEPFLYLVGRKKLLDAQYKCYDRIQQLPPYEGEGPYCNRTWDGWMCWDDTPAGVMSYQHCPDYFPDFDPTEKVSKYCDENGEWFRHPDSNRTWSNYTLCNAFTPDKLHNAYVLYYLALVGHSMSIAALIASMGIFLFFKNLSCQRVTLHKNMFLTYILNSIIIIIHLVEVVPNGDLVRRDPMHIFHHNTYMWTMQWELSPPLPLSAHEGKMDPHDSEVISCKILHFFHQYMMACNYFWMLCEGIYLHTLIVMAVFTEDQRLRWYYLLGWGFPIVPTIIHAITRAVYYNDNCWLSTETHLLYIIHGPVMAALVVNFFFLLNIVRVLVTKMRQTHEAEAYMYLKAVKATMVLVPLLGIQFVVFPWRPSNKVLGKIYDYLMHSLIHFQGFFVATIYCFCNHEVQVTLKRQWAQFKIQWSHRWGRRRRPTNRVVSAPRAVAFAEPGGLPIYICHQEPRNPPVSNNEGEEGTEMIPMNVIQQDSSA
T1 sequence (Q9JJ73 23-147 partner): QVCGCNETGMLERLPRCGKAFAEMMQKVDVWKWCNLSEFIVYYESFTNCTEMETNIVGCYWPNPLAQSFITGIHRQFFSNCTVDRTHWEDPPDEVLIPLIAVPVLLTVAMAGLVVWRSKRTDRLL
Summary of the method: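 Thawed cells in HBSS/0.1% BSA/25 mM HEPES pH 7.4 with 0.5 mM IBMX were incubated with peptides 30 min at room temperature; cAMP read by HTRF. EC50 from 4-parameter fit of % activation relative to maximal amylin or calcitonin effect.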

lean rats = test: Rat acute food intake study; type: in vivo; conditions: lean male Sprague Dawley rats, 20 nmol/kg subcutaneously
Summary of the method: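 Male Sprague Dawley rats (n=7/group), fasted 6 h, received 20 nmol/kg test compound or 60 nmol/kg pramlintide subcutaneously 30 min before food return at dark onset. Food intake recorded automatically in home cages over 3 days, binned hourly and analysed as cumulative dark-period intake; body weight taken daily.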

CC[C@H](C)[C@H](NC(=O)[C@@H]1CCCN1C(=O)CNC(=O)[C@](C)(Cc1ccccc1)NC(=O)[C@H](CC(N)=O)NC(=O)[C@H](CC(N)=O)NC(=O)[C@H](CO)NC(=O)[C@H](CO)NC(=O)[C@H](Cc1c[nH]cn1)NC(=O)[C@H](CCCNC(=N)N)NC(=O)[C@H](CC(C)C)NC(=O)[C@H](Cc1ccccc1)NC(=O)[C@H](CCC(=O)O)NC(=O)[C@H](C)NC(=O)[C@H](CC(C)C)NC(=O)[C@H](CCCNC(=N)N)NC(=O)[C@H](CCC(N)=O)NC(=O)[C@@H](NC(=O)[C@H](C)NC(=O)[C@@H]1CSSC[C@H](NC(=O)CC[C@H](NC(=O)CCCCCCCCCCCCCCCCC(=O)O)C(=O)O)C(=O)N[C@@H](CC(N)=O)C(=O)N[C@@H]([C@@H](C)O)C(=O)N[C@@H](C)C(=O)N[C@@H]([C@@H](C)O)C(=O)N1)[C@@H](C)O)C(=O)N[C@@H](CC(C)C)C(=O)N1CCC[C@H]1C(=O)N1CCC[C@H]1C(=O)N[C@H](C(=O)N[C@@H](CC(N)=O)C(=O)N[C@H](C(=O)NCC(=O)N[C@@H](CO)C(=O)N[C@@H](CC(N)=O)C(=O)N[C@H](C(=O)N[C@@H](Cc1ccc(O)cc1)C(N)=O)[C@@H](C)O)C(C)C)[C@@H](C)O [Peptide 10, C18diacid-γE-[CNTATC]ATQRLAEFLRHSSNN(αMePhe)GPILPPTNVGSNTY-amide] ({C18 diacid-γGlu}-CNTATCATQRLAEFLRHSSNN[αMeF]GPILPPTNVGSNTY-NH2; disulfide 1-6)
half-life ([1]; iv): 10.1 h | half-life ([1]; sc): 8.8 h | EC50 [2]: 12.1 pM | Cummulative food intake (% vehicle treated intake) At 12 h (lean rats): 18.8 % vehicle treated intake | Cummulative food intake (% vehicle treated intake) At 24 h (lean rats): 24.6 % vehicle treated intake | Cummulative food intake (% vehicle treated intake) At 48 h (lean rats): 46.6 % vehicle treated intake

CC[C@H](C)[C@H](NC(=O)[C@@H]1CCCN1C(=O)CNC(=O)[C@H](Cc1ccccc1)NC(=O)[C@H](CC(N)=O)NC(=O)C(C)(C)NC(=O)[C@H](CO)NC(=O)[C@H](CO)NC(=O)[C@H](Cc1c[nH]cn1)NC(=O)[C@H](CCCNC(=N)N)NC(=O)[C@H](CC(C)C)NC(=O)[C@H](Cc1ccccc1)NC(=O)[C@H](CC(N)=O)NC(=O)[C@H](C)NC(=O)[C@H](CC(C)C)NC(=O)[C@H](CCCNC(=N)N)NC(=O)[C@H](CCC(N)=O)NC(=O)[C@@H](NC(=O)[C@H](C)NC(=O)[C@@H]1CSSC[C@H](NC(=O)[C@@H](N)CCCCNC(=O)CC[C@H](NC(=O)CCCCCCCCCCCCCCCCC(=O)O)C(=O)O)C(=O)N[C@@H](CC(N)=O)C(=O)N[C@@H]([C@@H](C)O)C(=O)N[C@@H](C)C(=O)N[C@@H]([C@@H](C)O)C(=O)N1)[C@@H](C)O)C(=O)N[C@@H](CC(C)C)C(=O)N1CCC[C@H]1C(=O)N1CCC[C@H]1C(=O)N[C@H](C(=O)N[C@@H](CCC(=O)O)C(=O)N[C@H](C(=O)NCC(=O)N[C@@H](CO)C(=O)N[C@@H](CC(N)=O)C(=O)N[C@H](C(=O)N[C@@H](Cc1ccc(O)cc1)C(N)=O)[C@@H](C)O)C(C)C)[C@@H](C)O [Peptide 44, K(γE-C18diacid)[CNTATC]ATQRLANFLRHSS(Aib)NFGPILPPTEVGSNTY-amide] (H-K([γGlu-C18 diacid])CNTATCATQRLANFLRHSS[Aib]NFGPILPPTEVGSNTY-NH2; disulfide 2-7; N-terminus assumed)
half-life ([1]; iv): 8.9 h | half-life ([1]; sc): 11 h | EC50 [2]: 18.5 pM | Cummulative food intake (% vehicle treated intake) At 12 h (lean rats): 33.5 % vehicle treated intake | Cummulative food intake (% vehicle treated intake) At 24 h (lean rats): 39.2 % vehicle treated intake | Cummulative food intake (% vehicle treated intake) At 48 h (lean rats): 60.7 % vehicle treated intake

CC[C@H](C)[C@H](NC(=O)[C@@H]1CCCN1C(=O)CNC(=O)[C@H](Cc1ccccc1)NC(=O)[C@H](CC(N)=O)NC(=O)C(C)(C)NC(=O)[C@H](CO)NC(=O)[C@H](CO)NC(=O)[C@H](Cc1c[nH]cn1)NC(=O)[C@H](CCCNC(=N)N)NC(=O)[C@H](CC(C)C)NC(=O)[C@H](Cc1ccccc1)NC(=O)[C@H](CC(N)=O)NC(=O)[C@H](C)NC(=O)[C@H](CC(C)C)NC(=O)[C@H](CCCNC(=N)N)NC(=O)[C@H](CCC(N)=O)NC(=O)[C@@H](NC(=O)[C@H](C)NC(=O)[C@@H]1CSSC[C@H](NC(=O)[C@@H](N)CCCCNC(=O)CC[C@H](NC(=O)CCCCCCCCCCCCCCCCC(=O)O)C(=O)O)C(=O)N[C@@H](CC(N)=O)C(=O)N[C@@H]([C@@H](C)O)C(=O)N[C@@H](C)C(=O)N[C@@H]([C@@H](C)O)C(=O)N1)[C@@H](C)O)C(=O)N[C@@H](CC(C)C)C(=O)N1CCC[C@H]1C(=O)N1CCC[C@H]1C(=O)N[C@H](C(=O)N[C@@H](CC(N)=O)C(=O)N[C@H](C(=O)NCC(=O)N[C@@H](CO)C(=O)N[C@@H](CC(N)=O)C(=O)N[C@H](C(=O)N[C@@H](Cc1ccc(O)cc1)C(N)=O)[C@@H](C)O)C(C)C)[C@@H](C)O [Peptide 48, K(γE-C18diacid)[CNTATC]ATQRLANFLRHSS(Aib)NFGPILPPTNVGSNTY-amide] (H-K([γGlu-C18 diacid])CNTATCATQRLANFLRHSS[Aib]NFGPILPPTNVGSNTY-NH2; disulfide 2-7; N-terminus assumed)
half-life ([1]; iv): 5.6 h | half-life ([1]; sc): 8.1 h | EC50 [2]: 4.8 pM | Cummulative food intake (% vehicle treated intake) At 12 h (lean rats): 27.5 % vehicle treated intake | Cummulative food intake (% vehicle treated intake) At 24 h (lean rats): 32.6 % vehicle treated intake | Cummulative food intake (% vehicle treated intake) At 48 h (lean rats): 57.1 % vehicle treated intake

CC[C@H](C)[C@H](NC(=O)[C@@H]1CCCN1C(=O)CNC(=O)[C@](C)(Cc1ccccc1)NC(=O)[C@H](CC(N)=O)NC(=O)[C@H](CC(N)=O)NC(=O)[C@H](CO)NC(=O)[C@H](CO)NC(=O)[C@H](Cc1c[nH]cn1)NC(=O)[C@H](CCCNC(=N)N)NC(=O)[C@H](CC(C)C)NC(=O)[C@H](Cc1ccccc1)NC(=O)[C@H](CCC(=O)O)NC(=O)[C@H](C)NC(=O)[C@H](CC(C)C)NC(=O)[C@H](CCCNC(=N)N)NC(=O)[C@H](CCC(N)=O)NC(=O)[C@@H](NC(=O)[C@H](C)NC(=O)[C@@H]1CSSC[C@H](NC(=O)[C@H](CCCCN)NC(=O)[C@@H](N)CCCCNC(=O)CC[C@H](NC(=O)CCCCCCCCCCCCCCCCC(=O)O)C(=O)O)C(=O)N[C@@H](CC(N)=O)C(=O)N[C@@H]([C@@H](C)O)C(=O)N[C@@H](C)C(=O)N[C@@H]([C@@H](C)O)C(=O)N1)[C@@H](C)O)C(=O)N[C@@H](CC(C)C)C(=O)N1CCC[C@H]1C(=O)N1CCC[C@H]1C(=O)N[C@H](C(=O)N[C@@H](CC(N)=O)C(=O)N[C@H](C(=O)NCC(=O)N[C@@H](CO)C(=O)N[C@@H](CC(N)=O)C(=O)N[C@H](C(=O)N[C@@H](Cc1ccc(O)cc1)C(N)=O)[C@@H](C)O)C(C)C)[C@@H](C)O [Peptide 12, K(γE-C18diacid)K[CNTATC]ATQRLAEFLRHSSNN(αMePhe)GPILPPTNVGSNTY-amide] (H-K([γGlu-C18 diacid])KCNTATCATQRLAEFLRHSSNN[αMeF]GPILPPTNVGSNTY-NH2; disulfide 3-8; N-terminus assumed)
half-life ([1]; iv): 9.2 h | half-life ([1]; sc): 9.7 h | EC50 [2]: 5 pM | Cummulative food intake (% vehicle treated intake) At 12 h (lean rats): 9.4 % vehicle treated intake | Cummulative food intake (% vehicle treated intake) At 24 h (lean rats): 7.5 % vehicle treated intake | Cummulative food intake (% vehicle treated intake) At 48 h (lean rats): 23.6 % vehicle treated intake

CC[C@H](C)[C@H](NC(=O)[C@@H]1CCCN1C(=O)CNC(=O)[C@](C)(Cc1ccccc1)NC(=O)[C@H](CC(N)=O)NC(=O)[C@H](CC(N)=O)NC(=O)[C@H](CO)NC(=O)[C@H](CO)NC(=O)[C@H](Cc1c[nH]cn1)NC(=O)[C@H](CCCNC(=N)N)NC(=O)[C@H](CC(C)C)NC(=O)[C@H](Cc1ccccc1)NC(=O)[C@H](CC(N)=O)NC(=O)[C@H](C)NC(=O)[C@H](CC(C)C)NC(=O)[C@H](CCCNC(=N)N)NC(=O)[C@H](CCC(N)=O)NC(=O)[C@@H](NC(=O)[C@H](C)NC(=O)[C@@H]1CSSC[C@H](NC(=O)[C@H](CCCCN)NC(=O)[C@@H](N)CCCCNC(=O)CC[C@H](NC(=O)CCCCCCCCCCCCCCCCC(=O)O)C(=O)O)C(=O)N[C@@H](CC(N)=O)C(=O)N[C@@H]([C@@H](C)O)C(=O)N[C@@H](C)C(=O)N[C@@H]([C@@H](C)O)C(=O)N1)[C@@H](C)O)C(=O)N[C@@H](CC(C)C)C(=O)N1CCC[C@H]1C(=O)N1CCC[C@H]1C(=O)N[C@H](C(=O)N[C@@H](CCC(=O)O)C(=O)N[C@H](C(=O)NCC(=O)N[C@@H](CO)C(=O)N[C@@H](CC(N)=O)C(=O)N[C@H](C(=O)N[C@@H](Cc1ccc(O)cc1)C(N)=O)[C@@H](C)O)C(C)C)[C@@H](C)O [Peptide 15, K(γE-C18diacid)K[CNTATC]ATQRLANFLRHSSNN(αMePhe)GPILPPTEVGSNTY-amide] (H-K([γGlu-C18 diacid])KCNTATCATQRLANFLRHSSNN[αMeF]GPILPPTEVGSNTY-NH2; disulfide 3-8; N-terminus assumed)
half-life ([1]; iv): 10.4 h | half-life ([1]; sc): 11.5 h | EC50 [2]: 10.3 pM | Cummulative food intake (% vehicle treated intake) At 12 h (lean rats): 45.2 % vehicle treated intake | Cummulative food intake (% vehicle treated intake) At 24 h (lean rats): 49.1 % vehicle treated intake | Cummulative food intake (% vehicle treated intake) At 48 h (lean rats): 51 % vehicle treated intake
